Patent publication US20120245137A1 (Zalicus Pharmaceuticals Ltd., priority 2009, published 2012)

What follows are compounds tested against N-type calcium channel subunits (α1B, α2δ, and β3a) (Homo sapiens, UniProt Q00975) (assay: Block of Cav2.2 channel, whole cell voltage clamp, manual and PatchXpress). Conditions: Table 5; table follows Assay Example 3 (whole cell voltage clamp / PatchXpress); assay not given.
Format: cell-based
Protocol: Cells are grown either on poly-D-lysine coated coverglass (manual EP) or in TIS culture plates (PatchXpress). For the PatchExpress, cells are released from the flask using trypsin. In both cases, the […] solution is (in mM): 130 […], 10 EGTA, 10 HEPES, 2 MgCl2, 3 MgATP, pH 7.3 with CsOH.
Microelectrodes are fabricated from borosilicate glass and fire-polished. […] The reference electrode is a silver-silver chloride pellet. Voltages are not corrected for the liquid junction potential between the internal and external solutions and leak is subtracted using the P/n procedure. Solutions are applied to cells by bath perfusion via gravity. The experimental chamber volume is—0.2 mL. and the perfusion rate is 0.5-2 mL/min. Flow of suction through the chamber is maintained at all times. Measurement of current amplitudes is performed with […] software (HEKA Elektronik).
PatchXpress (Molecular Devices) is a 16-well whole-cell automated patch clamp device that operates asynchronously with fully integrated fluidics. […] Capacitance and series resistance compensation is automated. No correction for liquid junction potentials is employed. Leak is subtracted using the P/n procedure. Compounds are added to cells with a pipettor from a 96-well compound plate. Voltage protocols and the recording of membrane currents are performed using the PatchXpress software/hardware system. Current amplitudes are calculated with DataXpress software.
In both manual and automated patch clamp, cells are voltage clamped at […] or −90 m V and 50 ms pulses to +20 mV are applied every 15 sec (0.067 Hz). Compounds are added in escalating doses to measure % inhibition. Percent inhibition is calculated from the ratio of the curerent amplitude in the presence and absence of compound. When multiple doses are achieved per cell, IC50 values are calculated.

N-type calcium channel subunits (α1B, α2δ, and β3a), sequence (Q00975 whole entry): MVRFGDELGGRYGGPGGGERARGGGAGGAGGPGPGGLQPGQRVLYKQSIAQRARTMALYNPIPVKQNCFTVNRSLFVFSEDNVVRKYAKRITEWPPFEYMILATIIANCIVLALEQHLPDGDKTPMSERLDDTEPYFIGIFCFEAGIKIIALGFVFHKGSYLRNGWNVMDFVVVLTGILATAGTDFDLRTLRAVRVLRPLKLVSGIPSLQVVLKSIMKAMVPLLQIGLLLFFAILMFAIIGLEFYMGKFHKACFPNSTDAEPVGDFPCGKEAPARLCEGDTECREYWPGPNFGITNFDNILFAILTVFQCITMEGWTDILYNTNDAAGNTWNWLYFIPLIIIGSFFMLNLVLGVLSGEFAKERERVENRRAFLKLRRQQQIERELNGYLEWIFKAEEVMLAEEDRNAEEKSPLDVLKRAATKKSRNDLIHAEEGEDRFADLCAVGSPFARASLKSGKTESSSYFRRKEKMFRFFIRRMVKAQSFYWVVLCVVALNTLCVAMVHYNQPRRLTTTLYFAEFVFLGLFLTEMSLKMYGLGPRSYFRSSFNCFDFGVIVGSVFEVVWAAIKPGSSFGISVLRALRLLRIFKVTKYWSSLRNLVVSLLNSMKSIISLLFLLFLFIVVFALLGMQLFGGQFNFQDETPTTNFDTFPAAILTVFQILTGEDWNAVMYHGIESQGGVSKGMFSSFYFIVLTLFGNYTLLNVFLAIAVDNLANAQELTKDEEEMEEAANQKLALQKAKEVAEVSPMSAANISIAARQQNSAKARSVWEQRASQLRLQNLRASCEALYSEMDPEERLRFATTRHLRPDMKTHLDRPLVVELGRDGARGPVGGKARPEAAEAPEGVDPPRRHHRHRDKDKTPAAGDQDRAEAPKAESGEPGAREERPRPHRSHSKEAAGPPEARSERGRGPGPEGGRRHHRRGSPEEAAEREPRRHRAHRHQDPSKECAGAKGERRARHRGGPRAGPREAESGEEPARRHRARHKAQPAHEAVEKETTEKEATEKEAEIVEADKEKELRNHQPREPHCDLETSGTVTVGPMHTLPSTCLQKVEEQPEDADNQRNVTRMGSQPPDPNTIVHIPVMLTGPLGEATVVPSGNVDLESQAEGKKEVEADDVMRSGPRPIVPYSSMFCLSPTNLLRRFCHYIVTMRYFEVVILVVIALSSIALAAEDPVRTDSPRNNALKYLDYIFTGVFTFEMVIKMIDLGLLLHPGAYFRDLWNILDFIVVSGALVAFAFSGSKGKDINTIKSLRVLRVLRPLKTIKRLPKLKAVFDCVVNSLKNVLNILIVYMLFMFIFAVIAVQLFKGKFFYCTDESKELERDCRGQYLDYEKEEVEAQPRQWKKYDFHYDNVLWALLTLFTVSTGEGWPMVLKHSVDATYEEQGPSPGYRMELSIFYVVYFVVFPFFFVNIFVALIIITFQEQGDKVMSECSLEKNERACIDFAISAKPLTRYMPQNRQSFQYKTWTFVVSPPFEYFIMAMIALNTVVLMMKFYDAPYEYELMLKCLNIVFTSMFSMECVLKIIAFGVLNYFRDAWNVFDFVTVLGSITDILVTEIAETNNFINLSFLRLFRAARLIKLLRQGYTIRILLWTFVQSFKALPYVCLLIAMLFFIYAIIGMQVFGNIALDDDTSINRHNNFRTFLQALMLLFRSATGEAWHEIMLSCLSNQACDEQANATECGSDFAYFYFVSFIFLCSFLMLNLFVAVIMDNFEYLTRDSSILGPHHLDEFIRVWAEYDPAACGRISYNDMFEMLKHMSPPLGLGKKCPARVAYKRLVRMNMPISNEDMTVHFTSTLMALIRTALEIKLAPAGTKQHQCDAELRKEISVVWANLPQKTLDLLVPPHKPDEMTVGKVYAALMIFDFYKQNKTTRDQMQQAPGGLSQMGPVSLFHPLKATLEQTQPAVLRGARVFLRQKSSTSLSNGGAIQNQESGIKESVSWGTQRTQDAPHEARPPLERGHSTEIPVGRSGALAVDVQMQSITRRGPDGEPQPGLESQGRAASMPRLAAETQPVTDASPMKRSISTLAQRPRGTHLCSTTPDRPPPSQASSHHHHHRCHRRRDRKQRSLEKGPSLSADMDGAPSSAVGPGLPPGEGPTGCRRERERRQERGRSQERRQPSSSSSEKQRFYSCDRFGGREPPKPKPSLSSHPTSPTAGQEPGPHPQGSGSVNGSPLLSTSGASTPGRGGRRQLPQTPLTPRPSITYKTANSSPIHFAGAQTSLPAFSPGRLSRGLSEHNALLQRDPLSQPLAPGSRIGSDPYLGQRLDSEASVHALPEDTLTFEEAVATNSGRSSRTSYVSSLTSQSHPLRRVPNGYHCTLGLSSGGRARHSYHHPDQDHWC
N-type calcium channel subunits (α1B, α2δ, and β3a), sequence (P54289 25-1103 partner): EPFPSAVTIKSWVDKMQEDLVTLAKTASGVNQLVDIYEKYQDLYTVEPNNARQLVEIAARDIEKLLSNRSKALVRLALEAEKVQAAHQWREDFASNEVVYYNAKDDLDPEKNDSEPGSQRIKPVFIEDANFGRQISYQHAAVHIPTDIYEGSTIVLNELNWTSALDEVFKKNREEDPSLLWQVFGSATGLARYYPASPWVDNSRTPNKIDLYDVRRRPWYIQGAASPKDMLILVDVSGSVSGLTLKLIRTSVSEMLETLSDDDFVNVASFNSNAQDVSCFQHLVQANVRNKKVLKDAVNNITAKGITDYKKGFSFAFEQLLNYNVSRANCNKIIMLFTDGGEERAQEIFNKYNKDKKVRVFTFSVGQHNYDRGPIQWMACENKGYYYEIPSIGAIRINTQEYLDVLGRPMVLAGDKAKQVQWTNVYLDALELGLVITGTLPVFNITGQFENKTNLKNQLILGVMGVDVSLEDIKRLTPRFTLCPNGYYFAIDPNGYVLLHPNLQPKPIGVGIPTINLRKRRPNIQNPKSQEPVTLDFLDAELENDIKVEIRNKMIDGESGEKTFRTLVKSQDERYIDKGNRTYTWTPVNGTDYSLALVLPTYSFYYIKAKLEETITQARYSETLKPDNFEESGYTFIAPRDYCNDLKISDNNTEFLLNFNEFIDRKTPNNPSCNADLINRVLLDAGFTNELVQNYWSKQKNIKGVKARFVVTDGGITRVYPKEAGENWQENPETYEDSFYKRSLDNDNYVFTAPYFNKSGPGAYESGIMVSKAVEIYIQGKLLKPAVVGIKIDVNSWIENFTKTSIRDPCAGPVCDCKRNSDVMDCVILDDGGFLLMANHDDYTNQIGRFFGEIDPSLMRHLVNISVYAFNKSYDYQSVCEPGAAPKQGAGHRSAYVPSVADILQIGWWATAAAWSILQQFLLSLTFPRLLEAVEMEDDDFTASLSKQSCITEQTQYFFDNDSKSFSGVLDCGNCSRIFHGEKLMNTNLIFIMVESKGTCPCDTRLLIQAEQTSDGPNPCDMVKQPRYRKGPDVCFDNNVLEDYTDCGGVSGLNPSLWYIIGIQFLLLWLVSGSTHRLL
N-type calcium channel subunits (α1B, α2δ, and β3a), sequence (P54284 whole entry partner): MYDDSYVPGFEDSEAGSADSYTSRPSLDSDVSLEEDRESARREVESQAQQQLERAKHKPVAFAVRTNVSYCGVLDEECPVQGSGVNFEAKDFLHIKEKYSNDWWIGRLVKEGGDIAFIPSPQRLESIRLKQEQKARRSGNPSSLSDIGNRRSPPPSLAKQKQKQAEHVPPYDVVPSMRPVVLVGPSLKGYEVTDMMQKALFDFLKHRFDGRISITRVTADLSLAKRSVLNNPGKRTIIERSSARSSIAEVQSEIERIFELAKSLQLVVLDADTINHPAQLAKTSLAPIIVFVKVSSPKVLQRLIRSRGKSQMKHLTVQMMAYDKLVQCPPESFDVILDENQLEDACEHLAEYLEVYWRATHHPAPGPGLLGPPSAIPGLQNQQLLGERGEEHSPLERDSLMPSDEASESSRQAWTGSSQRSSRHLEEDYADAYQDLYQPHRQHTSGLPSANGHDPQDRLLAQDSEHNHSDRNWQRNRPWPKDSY

Compound | IC50 [nM]
O=C(N[C@H]1CC[C@H](S(=O)(=O)c2cccc(C(F)(F)F)c2)CC1)C1CCOCC1 [Compound 63, N-((1R,4R)-4-(3-(trifluoromethyl)phenylsulfonyl)cyclohexyl)tetrahydro-2H-pyran-4-carboxamide] | 9980
O=C(N[C@H]1CC[C@H](S(=O)(=O)c2cccc(C(F)(F)F)c2)CC1)c1ccc(OCC(F)(F)F)nc1 [Compound 184] | 3110
4,5-dichloro-N-((1R,4R)-4-(3- (trifluoromethyl)phenylsulfonyl) cyclohexyl)isothiazole-3- carboxamide [Compound 183] | 1990
O=C(N[C@H]1CC[C@H](CS(=O)(=O)c2cccc(C(F)(F)F)c2)CC1)c1nsc(Cl)c1Cl [Compound 170, 4,5-dichloro-N-((1R,4R)-4-((3-(trifluoromethyl)phenylsulfonyl)methyl)cyclohexyl)isothiazole-3-carboxamide] | 4920
CC1(NC(=O)c2ccnn2CC(F)(F)F)CCC(S(=O)(=O)c2cccc(C(F)(F)F)c2)CC1 (centres unmarked) [Compound 314, N-(1-methyl-4-(3-(trifluoromethyl)phenylsulfonyl)cyclohexyl)-1-(2,2,2-trifluoroethyl)-1Hpyrazole-5-carboxamide] | 4920
CC(C)NC(=O)CN[C@H]1CC[C@H](S(=O)(=O)c2cccc(C(F)(F)F)c2)CC1 [Compound 72, N-isopropyl-2-((1R,4R)-4-(3-(trifluoromethyl)phenylsulfonyl)cyclohexylamino)acetamide] | 8580
O=C(N[C@H]1C[C@H](S(=O)(=O)c2cccc(C(F)(F)F)c2)C1)c1cc(F)cc(Cl)c1 [Compound 220, 3-chloro-5-fluoro-N-(trans-3-(3-(trifluoromethyl)phenylsulfonyl)cyclobutyl)benzamide] | 3350
O=C(N[C@H]1CC[C@@H](S(=O)(=O)c2cccc(C(F)(F)F)c2)CC1)C1CCOCC1 [Compound 44, N-((1S,4S)-4-(3-(trifluoromethyl)phenylsulfonyl)cyclohexyl)tetrahydro-2H-pyran-4-carboxamide] | 5930
2-fluoro-N-((1R,4R)-4-(3- (trifluoromethyl)phenylsulfonyl) cyclohexyl)isonicotinamide [Compound 188] | 5610
CCN(CC)C(=O)CN[C@H]1CC[C@H](S(=O)(=O)c2cccc(C(F)(F)F)c2)CC1 [Compound 71, N,N-diethyl-2-((1R,4R)-4-(3-(trifluoromethyl)phenylsulfonyl)cyclohexylamino)acetamide] | 5870
Cc1nn(C)c(C)c1S(=O)(=O)NC[C@H]1C[C@H](S(=O)(=O)c2cccc(C(F)(F)F)c2)C1 [Compound 421, 1,3,5-trimethyl-N-(((1R,3R)-3-(3-(trifluoromethyl)phenylsulfonyl)cyclobutyl)methyl)-1H-pyrazole-4-sulfonamide] | 5580
O=C(NC[C@]1(O)CC[C@@H](S(=O)(=O)c2cccc(C(F)(F)F)c2)CC1)c1cc(C(F)(F)F)ccn1 [Compound 237, N-(((1S,4S)-1-hydroxy-4-(3-(trifluoromethyl)phenylsulfonyl)cyclohexyl)methyl)-4-(trifluoromethyl)picolinamide] | 4560
2-(methylsulfonyl)-6-(trifluoromethyl)- N-(((1S,3S)-3- (3-(trifluoromethyl) phenylsulfonyl)cyclobutyl) methyl)nicotinamide [Compound 382] | 1710

The next lines start with the values.

IC50 [nM] | Compound
2100 | COc1cc(C(=O)NC[C@]2(O)CC[C@@H](S(=O)(=O)c3cccc(C(F)(F)F)c3)CC2)cc(Cl)n1 [Compound 236, 2-chloro-N-(((1S,4S)-1-hydroxy-4-(3-(trifluoromethyl)phenylsulfonyl)cyclohexyl)methyl)-6-methoxyisonicotinamide]
1330 | O=C(N[C@H]1CC[C@@H](S(=O)(=O)c2cccc(C(F)(F)F)c2)CC1)c1ccnc(Cl)c1 [Compound 194, 2-chloro-N-((1S,4S)-4-(3-(trifluoromethyl)phenylsulfonyl)cyclohexyl)isonicotinamide]
2450 | CN(CC(=O)N[C@H]1CC[C@H](CS(=O)(=O)c2cccc(C(F)(F)F)c2)CC1)C(C)(C)C [Compound 161, 2-(tert-butyl(methyl)amino)-N-((1R,4R)-4-((3-(trifluoromethyl)phenylsulfonyl)methyl)cyclohexyl)acetamide]
1250 | 6-(trifluoromethyl)-N-((1S,4S)-4- (3-(trifluoromethyl)phenylsulfonyl) cyclohexyl)nicotinamide [Compound 199]
540 | O=C(NC[C@H]1C[C@H](S(=O)(=O)c2cccc(C(F)(F)F)c2)C1)c1ccc(OCC(F)(F)F)nc1 [Compound 376, 6-(2,2,2-trifluoroethoxy)-N-(((1R,3R)-3-(3-(trifluoromethyl)phenylsulfonyl)cyclobutyl)methyl)nicotinamide]
1700 | O=C(N[C@H]1CC[C@@H](S(=O)(=O)c2cccc(C(F)(F)F)c2)CC1)c1cnc(C(F)(F)F)nc1 [Compound 205, 2-(trifluoromethyl)-N-((1S,4S)-4-(3-(trifluoromethyl)phenylsulfonyl)cyclohexyl)pyrimidine-5-carboxamide]
260 | COc1cc(F)cc(C(=O)NC[C@H]2C[C@H](S(=O)(=O)c3cccc(C(F)(F)F)c3)C2)c1 [Compound 375, 3-fluoro-5-methoxy-N-(((1R,3R)-3-(3-(trifluoromethyl)phenylsulfonyl)cyclobutyl)methyl)benzamide]
2090 | O=C(CN[C@H]1C[C@H](S(=O)(=O)c2cccc(C(F)(F)F)c2)C1)N1CCC(C(F)(F)F)CC1 [Compound 214, 2-(trans-3-(3-(trifluoromethyl)phenylsulfonyl)cyclobutylamino)-1-(4-(trifluoromethyl)piperidin-1-yl)ethanone]
2110 | CC(C)(C)c1nc([C@H]2C[C@H](S(=O)(=O)c3cccc(C(F)(F)F)c3)C2)c[nH]1 [Compound 448, 2-tert-butyl-4-((1R,3R)-3-(3-(trifluoromethyl)phenylsulfonyl)cyclobutyl)-1H-imidazole]
750 | O=C(NC[C@H]1C[C@H](S(=O)(=O)c2cc(F)cc(C(F)(F)F)c2)C1)c1ccc(Cl)c(Cl)c1 [Compound 395, 3,4-dichloro-N-(((1R,3R)-3-(3-fluoro-5-(trifluoromethyl)phenylsulfonyl)cyclobutyl)methyl)benzamide]
2660 | O=C(NC[C@]1(O)CC[C@@H](S(=O)(=O)c2cccc(C(F)(F)F)c2)CC1)c1ccc(C(F)(F)F)cn1 [Compound 232, N-(((1S,4S)-1-hydroxy-4-(3-(trifluoromethyl)phenylsulfonyl)cyclohexyl)methyl)-5-(trifluoromethyl)picolinamide]
1360 | O=C(Nc1ncccc1C(F)(F)F)[C@H]1C[C@@H](S(=O)(=O)c2cccc(C(F)(F)F)c2)C1 [Compound 414, (1S,3S)-3-(3-(trifluoromethyl)phenylsulfonyl)-N-(3-(trifluoromethyl)pyridin-2-yl)cyclobutanecarboxamide]
2960 | COc1cc(F)cc(C(=O)N[C@H]2C[C@H](S(=O)(=O)c3cccc(C(F)(F)F)c3)C2)c1 [Compound 222, 3-fluoro-5-methoxy-N-(trans-3-(3-(trifluoromethyl)phenylsulfonyl)cyclobutyl)benzamide]
1500 | O=C(N[C@H]1C[C@H](S(=O)(=O)c2cccc(C(F)(F)F)c2)C1)c1ccc(F)c(C(F)(F)F)c1 [Compound 224, 4-fluoro-3-(trifluoromethyl)-N-(trans-3-(3-(trifluoromethyl)phenylsulfonyl)cyclobutyl)benzamide]
1810 | O=C(CN1CCCCC1)N[C@H]1CC[C@H](CS(=O)(=O)c2cccc(C(F)(F)F)c2)CC1 [Compound 164, 2-(piperidin-1-yl)-N-((1R,4R)-4-((3-(trifluoromethyl)phenylsulfonyl)methyl)cyclohexyl)acetamide]
290 | O=S(=O)(c1cccc(C(F)(F)F)c1)[C@H]1C[C@H](c2c[nH]c(-c3ccc(OC(F)(F)F)cc3)n2)C1 [Compound 444, 2-(4-(trifluoromethoxy)phenyl)-4-((1R,3R)-3-(3-(trifluoromethyl)phenylsulfonyl)cyclobutyl)-1H-imidazole]
2150 | Cn1nc(C(F)(F)F)cc1C(=O)N[C@H]1C[C@H](S(=O)(=O)c2cccc(C(F)(F)F)c2)C1 [Compound 226, 1-methyl-3-(trifluoromethyl)-N-(trans-3-(3-(trifluoromethyl)phenylsulfonyl)cyclobutyl)-1H-pyrazole-5-carboxamide]
2810 | CC(C)(C)NC(=O)CN[C@H]1C[C@H](S(=O)(=O)c2cccc(C(F)(F)F)c2)C1 [Compound 215, N-tert-butyl-2-(trans-3-(3-(trifluoromethyl)phenylsulfonyl)cyclobutylamino)acetamide]
1830 | O=C(N[C@H]1CC[C@H](S(=O)(=O)c2cccc(C(F)(F)F)c2)CC1)c1ccnc(Cl)c1 [Compound 181, 2-chloro-N-((1R,4R)-4-(3-(trifluoromethyl)phenylsulfonyl)cyclohexyl)isonicotinamide]
